In patent US20170190705A1, “Compositions and Methods for Inhibiting BMP” (THE BRIGHAM AND WOMAN'S HOSPITAL, INC., priority 2014, published 2017):

What was measured:
ALK2 = target: T1, ALK2 (Homo sapiens, UniProt Q04771, Q207D); assay: Thermal shift kinase assay ALK2; assay type: binding; conditions: for ΔTm at 10 µM: 10 μM inhibitor; for ΔTmDiff.: ALK2 minus ALK5; for ΔT ALK2: Table 6; for ΔT Diff.: Table 6, ALK2 minus ALK5
T1 construct: His tag (TEV-cleavable) (N, cleaved yes); made in house; host or cells: Sf9 insect cells (baculovirus)
T1 sequence (Q04771 201-499 Q207D): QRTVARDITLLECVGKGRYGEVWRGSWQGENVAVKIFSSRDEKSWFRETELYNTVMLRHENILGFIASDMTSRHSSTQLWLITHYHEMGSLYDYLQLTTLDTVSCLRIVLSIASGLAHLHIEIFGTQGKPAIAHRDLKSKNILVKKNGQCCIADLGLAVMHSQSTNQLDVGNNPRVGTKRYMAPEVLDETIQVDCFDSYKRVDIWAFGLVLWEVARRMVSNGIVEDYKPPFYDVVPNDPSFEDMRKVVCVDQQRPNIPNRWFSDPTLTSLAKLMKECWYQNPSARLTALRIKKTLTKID
Description: Thermal melting experiments were performed using a Real Time PCR machine Mx3005p (Stratagene) with a protein concentration of 1-2 μM and 10 μM inhibitor as described by Niesen et al., Nat Protoc 2007, 2, 2212-21. Recombinant human kinases for DSF screening were prepared by SGC using the published methods of Sanvitale et al., PLoS One 2013, 8, e62721. The potency and selectivity of certain compounds of the invention based on thermal shift kinase and ligand induced transcriptional activity assays are shown in Table 2.

HCK = HCK (Homo sapiens, UniProt P08631); assay: Kinome profiling HCK; assay type: biochemical; conditions: read-out: Inhibitory activity HCK; for inhibition at 0.1 µM: 100 nM
Description: (§1) . The kinome-wide selectivity was determined following the methods previously reported by Mohedas et al., ACS Chem Biol 2013, 8, 1291-1302 and Sanvitale et al., PLoS One 2013, 8, e62721.

TXK = target: T2, TXK (Homo sapiens, UniProt P42681); assay: Kinome profiling TXK; assay type: biochemical; conditions: read-out: Inhibitory activity TXK; for inhibition at 0.1 µM: 100 nM
T2 sequence (P42681 1-527): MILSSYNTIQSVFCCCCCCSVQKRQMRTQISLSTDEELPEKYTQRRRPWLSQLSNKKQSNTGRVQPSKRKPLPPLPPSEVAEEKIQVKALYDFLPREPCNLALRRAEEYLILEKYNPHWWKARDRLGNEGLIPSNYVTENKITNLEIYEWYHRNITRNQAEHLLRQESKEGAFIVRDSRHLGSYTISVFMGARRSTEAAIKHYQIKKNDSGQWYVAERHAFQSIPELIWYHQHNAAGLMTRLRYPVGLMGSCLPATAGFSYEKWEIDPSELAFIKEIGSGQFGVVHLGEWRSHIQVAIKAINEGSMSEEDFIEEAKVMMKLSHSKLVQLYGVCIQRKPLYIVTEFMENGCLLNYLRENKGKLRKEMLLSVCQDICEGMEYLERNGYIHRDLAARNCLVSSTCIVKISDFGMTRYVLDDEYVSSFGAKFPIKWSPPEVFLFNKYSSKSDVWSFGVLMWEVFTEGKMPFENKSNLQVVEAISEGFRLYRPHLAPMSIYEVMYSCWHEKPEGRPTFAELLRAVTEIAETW
Description: as §1

CHEK1 = target: T3, CHEK1 (Homo sapiens, UniProt O14757); assay: Kinome profiling CHEK1; assay type: biochemical; conditions: read-out: Inhibitory activity CHEK1; for inhibition at 0.1 µM: 100 nM
T3 sequence (O14757 1-476): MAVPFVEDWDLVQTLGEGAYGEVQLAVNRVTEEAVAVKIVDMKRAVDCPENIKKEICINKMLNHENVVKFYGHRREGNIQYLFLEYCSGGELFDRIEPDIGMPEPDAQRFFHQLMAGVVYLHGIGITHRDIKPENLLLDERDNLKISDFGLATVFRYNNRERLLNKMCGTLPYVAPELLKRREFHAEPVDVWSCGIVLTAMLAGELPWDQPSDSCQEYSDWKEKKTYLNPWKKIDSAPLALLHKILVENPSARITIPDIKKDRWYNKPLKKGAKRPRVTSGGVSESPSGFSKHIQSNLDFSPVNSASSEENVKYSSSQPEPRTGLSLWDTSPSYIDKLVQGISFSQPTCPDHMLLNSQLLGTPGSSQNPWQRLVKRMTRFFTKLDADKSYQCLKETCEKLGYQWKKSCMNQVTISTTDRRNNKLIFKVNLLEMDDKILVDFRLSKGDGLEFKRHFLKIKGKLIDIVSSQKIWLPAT
Description: as §1

DDR2 = target: T4, DDR2 (Homo sapiens, UniProt Q16832); assay: Kinome profiling DDR2; assay type: biochemical; conditions: read-out: Inhibitory activity DDR2; for inhibition at 0.1 µM: 100 nM
T4 sequence (Q16832 22-855): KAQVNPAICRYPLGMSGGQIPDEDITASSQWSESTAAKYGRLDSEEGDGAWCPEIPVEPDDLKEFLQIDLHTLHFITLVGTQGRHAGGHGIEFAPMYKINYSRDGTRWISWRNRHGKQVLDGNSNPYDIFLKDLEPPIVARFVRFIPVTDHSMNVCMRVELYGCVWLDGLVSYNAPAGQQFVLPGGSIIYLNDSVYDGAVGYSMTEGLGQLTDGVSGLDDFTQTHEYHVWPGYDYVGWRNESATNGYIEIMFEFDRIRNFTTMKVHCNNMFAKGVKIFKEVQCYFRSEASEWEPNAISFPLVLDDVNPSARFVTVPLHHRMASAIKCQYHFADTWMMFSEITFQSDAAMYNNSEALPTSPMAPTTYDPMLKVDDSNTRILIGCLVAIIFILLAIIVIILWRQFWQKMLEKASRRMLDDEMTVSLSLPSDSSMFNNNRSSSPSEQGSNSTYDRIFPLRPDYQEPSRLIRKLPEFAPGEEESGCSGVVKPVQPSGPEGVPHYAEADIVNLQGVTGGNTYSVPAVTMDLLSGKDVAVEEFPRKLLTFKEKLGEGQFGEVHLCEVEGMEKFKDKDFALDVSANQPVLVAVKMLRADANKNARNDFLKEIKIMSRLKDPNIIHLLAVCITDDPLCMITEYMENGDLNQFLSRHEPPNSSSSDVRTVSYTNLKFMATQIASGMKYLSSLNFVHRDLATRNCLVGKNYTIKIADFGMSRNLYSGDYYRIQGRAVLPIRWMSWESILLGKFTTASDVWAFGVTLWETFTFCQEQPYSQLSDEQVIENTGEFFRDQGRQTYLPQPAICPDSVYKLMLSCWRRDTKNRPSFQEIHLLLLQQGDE
Description: as §1

FMS = FMS (Homo sapiens, UniProt P07333); assay: Kinome profiling FMS; assay type: biochemical; conditions: read-out: Inhibitory activity FMS; for inhibition at 0.1 µM: 100 nM
Description: as §1

CK1α = CK1α (Homo sapiens, UniProt P48729); assay: Kinome profiling CK1α; assay type: biochemical; conditions: read-out: Inhibitory activity CK1α; for inhibition at 0.1 µM: 100 nM
Description: as §1

CK1α, sequence (P48729 whole entry): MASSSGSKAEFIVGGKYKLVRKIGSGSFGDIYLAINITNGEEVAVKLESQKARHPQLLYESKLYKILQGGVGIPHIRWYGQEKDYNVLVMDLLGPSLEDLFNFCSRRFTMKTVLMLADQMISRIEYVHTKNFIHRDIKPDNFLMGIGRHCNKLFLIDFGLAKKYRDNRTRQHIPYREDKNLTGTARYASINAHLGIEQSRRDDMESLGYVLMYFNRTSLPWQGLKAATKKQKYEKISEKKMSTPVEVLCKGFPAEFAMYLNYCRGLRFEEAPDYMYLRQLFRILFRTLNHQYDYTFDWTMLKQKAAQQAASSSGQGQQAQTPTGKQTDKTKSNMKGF
FMS, sequence (P07333 20-972): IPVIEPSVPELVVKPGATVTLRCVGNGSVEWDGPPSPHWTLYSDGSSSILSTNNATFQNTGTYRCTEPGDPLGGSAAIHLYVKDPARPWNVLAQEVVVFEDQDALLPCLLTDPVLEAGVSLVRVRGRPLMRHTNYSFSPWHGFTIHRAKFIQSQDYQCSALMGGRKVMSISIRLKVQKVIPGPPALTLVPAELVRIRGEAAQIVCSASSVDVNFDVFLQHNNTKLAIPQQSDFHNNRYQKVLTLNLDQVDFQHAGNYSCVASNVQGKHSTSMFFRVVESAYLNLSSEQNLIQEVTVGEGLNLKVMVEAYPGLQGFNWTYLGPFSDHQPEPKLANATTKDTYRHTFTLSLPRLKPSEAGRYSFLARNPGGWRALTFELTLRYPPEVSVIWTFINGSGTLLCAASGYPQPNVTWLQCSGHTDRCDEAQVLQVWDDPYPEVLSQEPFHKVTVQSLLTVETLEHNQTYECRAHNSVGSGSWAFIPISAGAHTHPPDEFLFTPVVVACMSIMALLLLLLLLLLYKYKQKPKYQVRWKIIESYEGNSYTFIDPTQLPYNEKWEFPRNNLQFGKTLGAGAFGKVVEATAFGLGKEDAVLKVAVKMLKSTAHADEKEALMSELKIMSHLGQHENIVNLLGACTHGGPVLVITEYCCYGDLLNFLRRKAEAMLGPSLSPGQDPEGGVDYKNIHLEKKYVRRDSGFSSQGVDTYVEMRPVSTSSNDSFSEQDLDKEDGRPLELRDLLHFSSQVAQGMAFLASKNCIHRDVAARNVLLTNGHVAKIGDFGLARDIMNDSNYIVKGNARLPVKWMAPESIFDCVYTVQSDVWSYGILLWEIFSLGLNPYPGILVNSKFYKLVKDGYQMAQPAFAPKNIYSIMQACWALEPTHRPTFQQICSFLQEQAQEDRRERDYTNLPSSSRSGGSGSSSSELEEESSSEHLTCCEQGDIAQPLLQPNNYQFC
HCK, sequence (P08631 whole entry): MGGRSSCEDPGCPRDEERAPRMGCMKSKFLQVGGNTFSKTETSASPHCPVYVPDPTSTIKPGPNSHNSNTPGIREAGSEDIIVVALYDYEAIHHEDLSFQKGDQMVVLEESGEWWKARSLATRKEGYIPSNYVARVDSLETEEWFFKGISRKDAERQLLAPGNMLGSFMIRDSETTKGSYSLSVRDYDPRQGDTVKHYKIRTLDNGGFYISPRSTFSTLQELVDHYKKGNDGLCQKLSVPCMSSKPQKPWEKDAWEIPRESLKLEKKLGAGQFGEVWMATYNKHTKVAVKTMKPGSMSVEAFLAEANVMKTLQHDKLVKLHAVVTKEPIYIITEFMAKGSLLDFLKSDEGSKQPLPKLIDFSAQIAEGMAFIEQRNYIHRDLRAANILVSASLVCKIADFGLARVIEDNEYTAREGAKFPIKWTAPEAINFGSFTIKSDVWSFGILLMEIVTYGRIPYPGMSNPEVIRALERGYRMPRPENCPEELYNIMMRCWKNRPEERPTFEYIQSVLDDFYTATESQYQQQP

Row | SMILES | ΔTm at 10 µM (ALK2) [°C] | ΔTmDiff. (ALK2) | ΔT ALK2 (ALK2) [°C] | ΔT Diff. (ALK2) [°C] | inhibition at 0.1 µM (HCK) [%] | inhibition at 1 µM (HCK) [%] | inhibition at 0.1 µM (TXK) [%] | inhibition at 1 µM (TXK) [%] | inhibition at 0.1 µM (CHEK1) [%] | inhibition at 1 µM (CHEK1) [%] | inhibition at 0.1 µM (DDR2) [%] | inhibition at 1 µM (DDR2) [%] | inhibition at 0.1 µM (FMS) [%] | inhibition at 1 µM (FMS) [%] | inhibition at 0.1 µM (CK1α) [%] | inhibition at 1 µM (CK1α) [%]
1 | COc1cc(-c2cc(-c3ccc(N4CCNCC4)cc3)cnc2N)cc(OC)c1OC [Compound 15, 5-(4-(piperazin-1-yl)phenyl)-3-(3,4,5-trimethoxyphenyl)pyridin-2-amine] | 15.1 | 1.2 | 15.1 | 1.2 | 41 | 81 | 21 | 66 | 2 | 6 | 32 | 86 | 23 | 65 | 5 | 18
2 | COc1cc(-c2cc(-c3ccc(N4CCNCC4)cc3)cnc2C)cc(OC)c1OC [Compound 10, 1-(4-(6-methyl-5-(3,4,5-trimethoxyphenyl)pyridin-3-yl)phenyl)piperazine] | 13.7 | 4.0 | 13.7 | 4.0 | 3 | 15 | 12 | 14 | 4 | -3 | -1 | 20 | 5 | 33 | 2 | 7
